Calls of active or inactive are those of the source. No rule for the calls is given here.
Test system: CCRIS mutagenicity, Ames/micronucleus/aberration tests
Assay: CCRIS mutagenicity studies

In the case of `CCN(CC)N=O`, the mutagenic call (End Point: IN VITRO MICRONUCLEUS, Test System: AHH-1 CELLS, Metabolic Activation: NONE) was “active; positive”, the mutagenic call (End Point: IN VITRO MICRONUCLEUS, Test System: MCL-5 CELLS, Metabolic Activation: NONE) was “active; positive” and the mutagenic call (Test System: AMES SALMONELLA TYPHIMURIUM, Strain/Indicator: TA97, Metabolic Activation: NONE, Method: PREINCUBATION) was “inactive; negative”. The mutagenic call (Test System: AMES SALMONELLA TYPHIMURIUM, Strain/Indicator: TA97, Metabolic Activation: RAT LIVER S-9, AROCLOR, Method: PREINCUBATION) was “inactive; negative”, the mutagenic call (Test System: AMES SALMONELLA TYPHIMURIUM, Strain/Indicator: TA98, Metabolic Activation: HAMSTER, LIVER, S-9, AROCLOR 1254 (30%), Method: PREINCUBATION) was “active; positive” and the mutagenic call (Test System: AMES SALMONELLA TYPHIMURIUM, Strain/Indicator: TA98, Metabolic Activation: NONE, Method: PREINCUBATION) was “active; positive”. The mutagenic call (Test System: AMES SALMONELLA TYPHIMURIUM, Strain/Indicator: TA98, Metabolic Activation: RAT LIVER S-9, AROCLOR, Method: PREINCUBATION) was “active; positive”, the mutagenic call (Test System: AMES SALMONELLA TYPHIMURIUM, Strain/Indicator: TA98, Metabolic Activation: RAT, LIVER, S-9, AROCLOR 1254 (30%), Method: PREINCUBATION) was “inactive; negative” and the mutagenic call (Test System: AMES SALMONELLA TYPHIMURIUM, Strain/Indicator: TA98, Metabolic Activation: RAT, LIVER, S-9, AROCLOR 1254, Method: STANDARD PLATE) was “active; positive”. For the same compound, the mutagenic call (Test System: AMES SALMONELLA TYPHIMURIUM, Strain/Indicator: TA98, Metabolic Activation: RAT, LIVER, S-9, KC500 OR PHENOBARBITAL, Method: LIQUID SUSPENSION) was “active; positive”, the mutagenic call (Test System: AMES SALMONELLA TYPHIMURIUM, Strain/Indicator: TA98, Metabolic Activation: RAT, LIVER, S-9, PHENOBARBITAL, Method: PREINCUBATION) was “active; positive” and the mutagenic call (Test System: AMES SALMONELLA TYPHIMURIUM, Strain/Indicator: TA98NR, Metabolic Activation: NONE, Method: PREINCUBATION) was “inactive; negative”. For the same compound, the mutagenic call (Test System: AMES SALMONELLA TYPHIMURIUM, Strain/Indicator: TA98NR, Metabolic Activation: RAT LIVER S-9, AROCLOR, Method: PREINCUBATION) was “active; positive”, the mutagenic call (Test System: AMES SALMONELLA TYPHIMURIUM, Strain/Indicator: TA100, Metabolic Activation: HAMSTER, LIVER, S-9, AROCLOR 1254 (30%), Method: PREINCUBATION) was “active; positive” and the mutagenic call (Test System: AMES SALMONELLA TYPHIMURIUM, Strain/Indicator: TA100, Metabolic Activation: MOUSE, INTACT UROTHELIAL CELLS, Method: FLUCTUATION TEST) was “active; positive”. The mutagenic call (Test System: AMES SALMONELLA TYPHIMURIUM, Strain/Indicator: TA100, Metabolic Activation: MOUSE, KIDNEY, S-9, PHENETHYL ISOTHIOCYANATE, Method: PREINCUBATION) was “inactive; negative”, the mutagenic call (Test System: AMES SALMONELLA TYPHIMURIUM, Strain/Indicator: TA100, Metabolic Activation: MOUSE, KIDNEY, S-9, Method: PREINCUBATION) was “active; positive” and the mutagenic call (Test System: AMES SALMONELLA TYPHIMURIUM, Strain/Indicator: TA100, Metabolic Activation: MOUSE, LIVER, S-9, PHENETHYL ISOTHIOCYANATE, Method: PREINCUBATION) was “inactive; negative”. The mutagenic call (Test System: AMES SALMONELLA TYPHIMURIUM, Strain/Indicator: TA100, Metabolic Activation: MOUSE, LIVER, S-9, Method: PREINCUBATION) was “active; positive”, the mutagenic call (Test System: AMES SALMONELLA TYPHIMURIUM, Strain/Indicator: TA100, Metabolic Activation: MOUSE, LUNG, S-9, PHENETHYL ISOTHIOCYANATE, Method: PREINCUBATION) was “inactive; negative” and the mutagenic call (Test System: AMES SALMONELLA TYPHIMURIUM, Strain/Indicator: TA100, Metabolic Activation: MOUSE, LUNG, S-9, Method: PREINCUBATION) was “inactive; negative”. For the same compound, the mutagenic call (Test System: AMES SALMONELLA TYPHIMURIUM, Strain/Indicator: TA100, Metabolic Activation: NONE, Method: STANDARD PLATE) was “inactive; negative”, the mutagenic call (Test System: AMES SALMONELLA TYPHIMURIUM, Strain/Indicator: TA100, Metabolic Activation: RABBIT, LIVER, S-9, Method: STANDARD PLATE) was “inactive; negative” and the mutagenic call (Test System: AMES SALMONELLA TYPHIMURIUM, Strain/Indicator: TA100, Metabolic Activation: RABBIT, LUNG, S-9, Method: STANDARD PLATE) was “inactive; negative”. The mutagenic call (Test System: AMES SALMONELLA TYPHIMURIUM, Strain/Indicator: TA100, Metabolic Activation: RABBIT, NASAL, S-9, Method: STANDARD PLATE) was “inactive; negative”, the mutagenic call (Test System: AMES SALMONELLA TYPHIMURIUM, Strain/Indicator: TA100, Metabolic Activation: RAT LIVER S-9, AROCLOR, Method: PREINCUBATION) was “active; positive” and the mutagenic call (Test System: AMES SALMONELLA TYPHIMURIUM, Strain/Indicator: TA100, Metabolic Activation: RAT, INTACT UROTHELIAL CELLS, Method: FLUCTUATION TEST) was “active; positive”. For the same compound, the mutagenic call (Test System: AMES SALMONELLA TYPHIMURIUM, Strain/Indicator: TA100, Metabolic Activation: RAT, LIVER, S-9, AROCLOR 1254 (30%), Method: PREINCUBATION) was “inactive; negative”, the mutagenic call (Test System: AMES SALMONELLA TYPHIMURIUM, Strain/Indicator: TA100, Metabolic Activation: RAT, LIVER, S-9, AROCLOR 1254, Method: PREINCUBATION) was “active; positive” and the mutagenic call (Test System: AMES SALMONELLA TYPHIMURIUM, Strain/Indicator: TA100, Metabolic Activation: RAT, LIVER, S-9, KC500 OR PHENOBARBITAL, Method: LIQUID SUSPENSION) was “active; positive”. The mutagenic call (Test System: AMES SALMONELLA TYPHIMURIUM, Strain/Indicator: TA100, Metabolic Activation: RAT, LIVER, S-9, PHENOBARBITAL, Method: PREINCUBATION) was “active; positive”, the mutagenic call (Test System: AMES SALMONELLA TYPHIMURIUM, Strain/Indicator: TA100, Metabolic Activation: RAT, LUNG, S-9, Method: STANDARD PLATE) was “inactive; negative” and the mutagenic call (Test System: AMES SALMONELLA TYPHIMURIUM, Strain/Indicator: TA100, Metabolic Activation: RAT, NASAL, S-9, Method: STANDARD PLATE) was “inactive; negative”. The mutagenic call (Test System: AMES SALMONELLA TYPHIMURIUM, Strain/Indicator: TA100, Metabolic Activation: S-9, Method: PREINCUBATION) was “inactive; negative”, the mutagenic call (Test System: AMES SALMONELLA TYPHIMURIUM, Strain/Indicator: TA102, Metabolic Activation: NONE, Method: PREINCUBATION) was “inactive; negative” and the mutagenic call (Test System: AMES SALMONELLA TYPHIMURIUM, Strain/Indicator: TA102, Metabolic Activation: RAT LIVER S-9, AROCLOR, Method: PREINCUBATION) was “inactive; negative”. The mutagenic call (Test System: AMES SALMONELLA TYPHIMURIUM, Strain/Indicator: TA104, Metabolic Activation: RAT, LIVER, S-9, AROCLOR 1254, Method: PREINCUBATION) was “active; positive”, the mutagenic call (Test System: AMES SALMONELLA TYPHIMURIUM, Strain/Indicator: TA1530, Metabolic Activation: RAT, LIVER, S-9, PHENOBARBITAL, Method: PREINCUBATION) was “active; positive” and the mutagenic call (Test System: AMES SALMONELLA TYPHIMURIUM, Strain/Indicator: TA1530, Metabolic Activation: RAT, LIVER, S-9, Method: STANDARD PLATE) was “active; positive”. For the same compound, the mutagenic call (Test System: AMES SALMONELLA TYPHIMURIUM, Strain/Indicator: TA1535, Metabolic Activation: NONE, Method: PREINCUBATION) was “inactive; negative”, the mutagenic call (Test System: AMES SALMONELLA TYPHIMURIUM, Strain/Indicator: TA1535, Metabolic Activation: RAT, LIVER, HEPATOCYTES, Method: PREINCUBATION) was “active; positive” and the mutagenic call (Test System: AMES SALMONELLA TYPHIMURIUM, Strain/Indicator: TA1535, Metabolic Activation: RAT, LIVER, S-9, AROCLOR 1254, Method: PREINCUBATION) was “active; positive”. For the same compound, the mutagenic call (Test System: AMES SALMONELLA TYPHIMURIUM, Strain/Indicator: TA1535, Metabolic Activation: RAT, LIVER, S-9, AROCLOR, Method: PREINCUBATION) was “active; positive”, the mutagenic call (Test System: AMES SALMONELLA TYPHIMURIUM, Strain/Indicator: TA1535, Metabolic Activation: RAT, LIVER, S-9, SODIUM PHENOBARBITONE, Method: PREINCUBATION) was “active; positive” and the mutagenic call (Test System: AMES SALMONELLA TYPHIMURIUM, Strain/Indicator: TA1535, Metabolic Activation: RAT, LIVER, S-9, Method: PREINCUBATION) was “active; positive”. The mutagenic call (Test System: AMES SALMONELLA TYPHIMURIUM, Strain/Indicator: TA1535, Metabolic Activation: S-9, Method: PREINCUBATION) was “inactive; negative”, the mutagenic call (Test System: AMES SALMONELLA TYPHIMURIUM, Strain/Indicator: TA1535ER, Metabolic Activation: NONE, Method: STANDARD PLATE) was “inactive; negative” and the mutagenic call (Test System: AMES SALMONELLA TYPHIMURIUM, Strain/Indicator: TA1975, Metabolic Activation: RAT, LIVER, S-9, AROCLOR 1254, Method: PREINCUBATION) was “active; positive”.

From PubChem BioAssay AID1259407 (Chemical Carcinogenesis Research Information System (CCRIS), 2018)
